28 compounds from US10604527B2, “Pyrazine compounds for the treatment of hepatitis B infection” (Hoffmann-La Roche Inc., priority 2016, dated 2020) can be followed below.

The test system of this assay is HBV. The assay is described as follows: HBV inhibition assay in HepG2.2.15 cells (extracellular HBV DNA by qPCR). It is filed as cell-based. Conditions: Hepatitis B virus, 120 h, extracellular HBV DNA in culture supernatant by qPCR, five days after compound treatment. As for the experimental part:
HepG2.2.15 is a stably-transfected cell line containing the HBV genome. It is derived from the hepatoblastoma cell line Hep G2 (American Type Culture Collection, ATCC® HB-8065™) by the published procedures described in reference: M A Selles et al. Proc. Natl. Acad. Sci. USA 1987, 84, 1005-1009. The cell line was maintained in Dulbecco's modified Eagle's medium (DMEM)-F12 medium supplemented with 10% fetal bovine serum, 20 mM L-glutamine, 0.1 mM NEAA, 50 U/mL penicillin, 50 μg/mL streptomycin, and 0.3 mg/mL of G418.
HepG2.2.15 cells were seeded into 96-well plates at a density of 3×10^4 cells per well in 100 μL DMEM/F12 media (Life Science, Cat. #: 11320-033) supplemented with 2.5% fetal bovine serum, 20 mM L-glutamine, 0.1 mM NEAA, 50 U/mL penicillin, 50 U/mL streptomycin and cultured overnight at 37° C. The test compounds were serially half-log diluted in DMSO, then diluted 100 times in culture media. 100 μL diluted solution of tested compounds were added into the plates to reach 0.5% final concentration of DMSO in every well. Five days after compound treatment, culture supernatant was collected for further analysis.
For quantitative PCR detection of extracellular HBV DNA, culture supernatant was processed by 500 μg/mL Proteinase K (Sigma, Cat. #: P2308) digestion at 50° C. for 1 hour. After heat inactivation of the enzyme at 95° C. for 15 minutes, the samples were subjected to HBV DNA quantification by qPCR. The effective compound concentration at which HBV replication inhibited by 50% (EC50) was determined.
In general terms: Quantitative PCR measures a nucleic acid by following its amplification.
What is called EC50 is the concentration giving half of the maximal effect. A low value points to a more potent agent. `CC(C)Oc1cnn2c1CN(C(=O)Nc1ccc(F)c(Cl)c1)C(C)C2` (stereo not shown) [Example 1, N-(3-chloro-4-fluoro-phenyl)-3-isopropoxy-6-methyl-6,7-dihydro-4H-pyrazolo[1,5-a]pyrazine-5-carboxamide] registered an EC50 of 18 nM. That is a double-digit nanomolar value. The compound `CC1Cn2ncc(OC3CCCC3)c2CN1C(=O)Nc1ccc(F)c(Cl)c1` (stereo not shown) [Example 2, N-(3-chloro-4-fluoro-phenyl)-3-(cyclopentoxy)-6-methyl-6,7-dihydro-4H-pyrazolo[1,5-a]pyrazine-5-carboxamide] gave an EC50 of 8 nM.

Regarding `C[C@H]1Cn2ncc(OC3CCOC3)c2CN1C(=O)Nc1ccc(F)c(Cl)c1` (stereo partly drawn) [Example 3, (6S)-N-(3-chloro-4-fluoro-phenyl)-6-methyl-3-tetrahydrofuran-3-yloxy-6,7-dihydro-4H-pyrazolo[1,5-a]pyrazine-5-carboxamide], the midpoint of the response, the EC50, lay at 151 nM. Compared with the last compound, the EC50 is about 19-fold higher. The value for `C[C@H]1Cn2ncc(OC3CCOCC3)c2CN1C(=O)Nc1ccc(F)c(Cl)c1` [Example 4, (6S)-N-(3-chloro-4-fluoro-phenyl)-6-methyl-3-tetrahydropyran-4-yloxy-6,7-dihydro-4H-pyrazolo[1,5-a]pyrazine-5-carboxamide] was 107 nM; that for `C[C@H]1Cn2ncc(OC3CCNC3=O)c2CN1C(=O)Nc1ccc(F)c(Cl)c1` (stereo partly drawn) [Example 5, (6S)-N-(3-chloro-4-fluoro-phenyl)-6-methyl-3-(2-oxopyrrolidin-3-yl)oxy-6,7-dihydro-4H-pyrazolo[1,5-a]pyrazine-5-carboxamide] was 434 nM; that for `C[C@H]1Cn2ncc(OC3CCN(S(C)(=O)=O)CC3)c2CN1C(=O)Nc1ccc(F)c(Cl)c1` [Example 6, (6S)-N-(3-chloro-4-fluoro-phenyl)-6-methyl-3-[(1-methylsulfonyl-4-piperidyl)oxy]-6,7-dihydro-4H-pyrazolo[1,5-a]pyrazine-5-carboxamide] was 310 nM.

For the compound `C[C@H]1Cn2ncc(Oc3ccccn3)c2CN1C(=O)Nc1cc(F)c(F)c(F)c1` [Example 7, (6S)-6-methyl-3-(2-pyridyloxy)-N-(3,4,5-trifluorophenyl)-6,7-dihydro-4H-pyrazolo[1,5-a]pyrazine-5-carboxamide], the EC50 came out at 984 nM. This EC50 lies about 3.2-fold higher than the previous one. With `C[C@H]1Cn2ncc(Oc3ncccn3)c2CN1C(=O)Nc1cc(F)c(F)c(F)c1` [Example 8, (6S)-6-methyl-3-pyrimidin-2-yloxy-N-(3,4,5-trifluorophenyl)-6,7-dihydro-4H-pyrazolo[1,5-a]pyrazine-5-carboxamide] the figure was 713 nM; with `C[C@H]1Cn2ncc(Oc3ccc(F)cn3)c2CN1C(=O)Nc1cc(F)c(F)c(F)c1` [Example 9, (6S)-3-[(5-fluoro-2-pyridyl)oxy]-6-methyl-N-(3,4,5-trifluorophenyl)-6,7-dihydro-4H-pyrazolo[1,5-a]pyrazine-5-carboxamide], 240 nM. The value for `CC1Cn2ncc(S(=O)(=O)C3CCOC3)c2CN1C(=O)Nc1ccc(F)c(Cl)c1` (stereo not shown) [Example 10, N-(3-chloro-4-fluoro-phenyl)-6-methyl-3-tetrahydrofuran-3-ylsulfonyl-6,7-dihydro-4H-pyrazolo[1,5-a]pyrazine-5-carboxamide] was 32 nM. On to `CC1Cn2ncc(S(=O)(=O)C3CCCC3)c2CN1C(=O)Nc1ccc(F)c(Cl)c1` (stereo not shown) [Example 11, N-(3-chloro-4-fluoro-phenyl)-3-cyclopentylsulfonyl-6-methyl-6,7-dihydro-4H-pyrazolo[1,5-a]pyrazine-5-carboxamide], for which a half-maximal response (EC50) required 11 nM.

Consider `CC1Cn2ncc(S(=O)(=O)C(C)C)c2CN1C(=O)Nc1ccc(F)c(Cl)c1` (stereo not shown) [Example 12, N-(3-chloro-4-fluoro-phenyl)-3-isopropylsulfonyl-6-methyl-6,7-dihydro-4H-pyrazolo[1,5-a]pyrazine-5-carboxamide], for which the EC50 was found to be 11 nM. In turn, `CC(C)CS(=O)(=O)c1cnn2c1CN(C(=O)Nc1ccc(F)c(Cl)c1)C(C)C2` (stereo not shown) [Example 13, N-(3-chloro-4-fluoro-phenyl)-3-isobutylsulfonyl-6-methyl-6,7-dihydro-4H-pyrazolo[1,5-a]pyrazine-5-carboxamide] displayed an EC50 of 24 nM. For `C[C@H]1Cn2ncc(S(=O)(=O)C3CCOC3)c2CN1C(=O)Nc1ccc(F)c(Cl)c1` (stereo partly drawn) [Example 14, (6S)-N-(3-chloro-4-fluoro-phenyl)-6-methyl-3-tetrahydrofuran-3-ylsulfonyl-6,7-dihydro-4H-pyrazolo[1,5-a]pyrazine-5-carboxamide], the midpoint of the response, the EC50, lay at 55 nM. In turn, `C[C@H]1Cn2ncc(S(=O)(=O)C3CCOCC3)c2CN1C(=O)Nc1ccc(F)c(Cl)c1` [Example 15, (6S)-N-(3-chloro-4-fluoro-phenyl)-6-methyl-3-tetrahydropyran-4-ylsulfonyl-6,7-dihydro-4H-pyrazolo[1,5-a]pyrazine-5-carboxamide] gave an EC50 of 97 nM. Against the preceding compound, the EC50 is about 1.8-fold higher.

Consider `C[C@H]1Cn2ncc(S(=O)(=O)C3CCOC3)c2CN1C(=O)Nc1cc(F)c(F)c(F)c1` (stereo partly drawn) [Example 16, (6S)-6-methyl-3-tetrahydrofuran-3-ylsulfonyl-N-(3,4,5-trifluorophenyl)-6,7-dihydro-4H-pyrazolo[1,5-a]pyrazine-5-carboxamide], for which the EC50 is 77 nM. The value for `C[C@H]1Cn2ncc(S(=O)(=O)C3CCOC3)c2CN1C(=O)Nc1ccnc(Cl)c1` (stereo partly drawn) [Example 17, (6S)-N-(2-chloro-4-pyridyl)-6-methyl-3-tetrahydrofuran-3-ylsulfonyl-6,7-dihydro-4H-pyrazolo[1,5-a]pyrazine-5-carboxamide] was 871 nM. The value for `CC(C)S(=O)(=O)c1cnn2c1CN(C(=O)Nc1ccnc(Cl)c1)[C@@H](C)C2` [Example 18, (6S)-N-(2-chloro-4-pyridyl)-3-isopropylsulfonyl-6-methyl-6,7-dihydro-4H-pyrazolo[1,5-a]pyrazine-5-carboxamide] was 471 nM; that for `C[C@H]1Cn2ncc(S(=O)(=O)C3CCCC3)c2CN1C(=O)Nc1ccnc(Cl)c1` [Example 19, (6S)-N-(2-chloro-4-pyridyl)-3-cyclopentylsulfonyl-6-methyl-6,7-dihydro-4H-pyrazolo[1,5-a]pyrazine-5-carboxamide] was 134 nM; that for `CC(C)S(=O)(=O)c1cnn2c1CN(C(=O)Nc1cc(F)c(F)c(F)c1)[C@@H](C)C2` [Example 20, (6S)-3-isopropylsulfonyl-6-methyl-N-(3,4,5-trifluorophenyl)-6,7-dihydro-4H-pyrazolo[1,5-a]pyrazine-5-carboxamide] was 21 nM. The value for `CC(C)S(=O)(=O)c1cnn2c1CN(C(=O)Nc1ccnc(C(F)F)c1)[C@@H](C)C2` [Example 21, (6S)-N-[2-(difluoromethyl)-4-pyridyl]-3-isopropylsulfonyl-6-methyl-6,7-dihydro-4H-pyrazolo[1,5-a]pyrazine-5-carboxamide] was 272 nM; that for `C[C@H]1Cn2ncc(S(=O)(=O)C3CC3)c2CN1C(=O)Nc1cc(F)c(F)c(F)c1` [Example 22, (6S)-3-cyclopropylsulfonyl-6-methyl-N-(3,4,5-trifluorophenyl)-6,7-dihydro-4H-pyrazolo[1,5-a]pyrazine-5-carboxamide] was 78 nM; that for `C[C@H]1Cn2ncc(S(=O)(=O)N3CCCC3)c2CN1C(=O)Nc1ccc(F)c(Cl)c1` [Example 23, (6S)-N-(3-chloro-4-fluoro-phenyl)-6-methyl-3-pyrrolidin-1-ylsulfonyl-6,7-dihydro-4H-pyrazolo[1,5-a]pyrazine-5-carboxamide] was 78 nM. Turning to `C[C@H]1Cn2ncc(S(=O)(=O)N(C)C)c2CN1C(=O)Nc1ccc(F)c(Cl)c1` [Example 24, (6S)-N-(3-chloro-4-fluoro-phenyl)-3-(dimethylsulfamoyl)-6-methyl-6,7-dihydro-4H-pyrazolo[1,5-a]pyrazine-5-carboxamide], a half-maximal response (EC50) required 142 nM. Regarding `CC(C)NS(=O)(=O)c1cnn2c1CN(C(=O)Nc1ccc(F)c(Cl)c1)[C@@H](C)C2` [Example 25, (6S)-N-(3-chloro-4-fluoro-phenyl)-3-(isopropylsulfamoyl)-6-methyl-6,7-dihydro-4H-pyrazolo[1,5-a]pyrazine-5-carboxamide], the EC50 came out at 82 nM. Compound `C[C@H]1Cn2ncc(S(=O)(=O)N[C@H]3CCOC3)c2CN1C(=O)Nc1ccc(F)c(Cl)c1` [Example 26, (6S)-N-(3-chloro-4-fluoro-phenyl)-6-methyl-3-[[(3S)-tetrahydrofuran-3-yl]sulfamoyl]-6,7-dihydro-4H-pyrazolo[1,5-a]pyrazine-5-carboxamide] registered an EC50 of 365 nM. The compound `C[C@H]1Cn2ncc(S(=O)(=O)NC(C)(C)CO)c2CN1C(=O)Nc1cc(F)c(F)c(F)c1` [Example 27, (6S)-3-[(2-hydroxy-1,1-dimethyl-ethyl)sulfamoyl]-6-methyl-N-(3,4,5-trifluorophenyl)-6,7-dihydro-4H-pyrazolo[1,5-a]pyrazine-5-carboxamide] gave an EC50 of 156 nM. With `C[C@H]1Cn2ncc(S(=O)(=O)N3CCC(F)(F)C3)c2CN1C(=O)Nc1cc(F)c(F)c(F)c1` [Example 28, (6S)-3-(3,3-difluoropyrrolidin-1-yl)sulfonyl-6-methyl-N-(3,4,5-trifluorophenyl)-6,7-dihydro-4H-pyrazolo[1,5-a]pyrazine-5-carboxamide] the figure was 168 nM.
